The source of these data is patent US20230172958A1, “USE OF COMPOUNDS FOR TREATING VIRAL INFECTIONS” (priority 2020, published 2023).

Like-named read-outs stand apart in the source and are kept apart here.

Format in all cases: cell-based
In one data set the test system is V-ATPase. Kind of data set: V-ATPase ELISA (Human V-Type Proton ATPase ELISA kit) on treated MDAMB231 cells. To be noted: 100 nM (0.1 μM)/10,000 cells, 48 hours. As to the method: An ELISA test was performed using Human V-Type Proton ATPase ELISA kit (My BioSource Catlog no: MBS911862) to determine the V-ATPase inhibitory effect of the compounds of the present invention.
Procedure: 1.0 million cells of MDAMB231 (cell line rich in V-ATPase) were plated on 60 mm plates for 24 hours at 37° C. and 5% CO2. The cells were treated with the test compounds (Formula A to U) at a concentration of 100 nM (0.1 μM)/10,000 cells and incubated for 48 hours. After incubation the supernatant was discarded, the cells were washed with D.P.B.S. (Dulbecco's phosphate-buffered saline), scraped and stored at −80° C. for 48 hours. The cells were thawed, vortexed, homogenized for 7 minutes, followed by centrifugation for 3 minutes at 3000 R.P.M. The supernatant was taken for V-ATPase Assay.
Standards and samples were pipetted into the wells. Antibody specific for V-ATPase was pre-coated onto a microplate. Any V-ATPase present in the standard /sample would get bound by the immobilized antibody. After the incubation period any unbound substances were removed by washing and a biotin-conjugated antibody specific for V-ATPase was added to the wells and plates were re-incubated at 37° C. and 5% CO2. After washing, avidin conjugated Horseradish Peroxidase (HRP) was added to the wells. Following a wash to remove any unbound avidin-enzyme reagent, a substrate solution was added to the wells and colour developed was in proportion to the amount of V-ATPase bound in the initial step. The colour development was stopped, and the optical density was measured at 450 nm spectrophotometrically. The concentration of V-ATPase was then calculated by substituting the optical density in the regression equation obtained from the standards. Percent (%) reduction in V-ATPase was calculated by subtracting the amount of V-ATPase obtained from the untreated/conc. of V-ATPase in untreated X100.
On the technique in general: In an ELISA, binding on a coated surface is turned into a signal by an enzyme label.

Data set [1] has as its system Human Peripheral Blood Lymphocytes. The data set can be described thus: MTT toxicity assay on normal cells. To be noted: 48 hours. As to the method: Toxicity studies of compounds of the present invention on normal cells The toxicity study was performed on Human Peripheral Blood Lymphocytes obtained differential centrifugation of defibrinated blood. MTT assay for compound of the present invention was performed to determine its toxicity. MTT assay is a simple and sensitive assay where, metabolic reducing activity of the cells is measured. It was carried out in the following manner.
A required volume of cell suspension was prepared as per the cell plating efficiency. 200 μl of prepared cell suspension was added in labelled 96 well plates and the plates were placed in an incubator for 18-24 hours at 37° C. and 5% CO2. Then, 2 μl of respective compound dilution was added and the plates were placed in the incubator for 48 hours at 37° C. and 5% CO2. The suspension was aspirated from the plates and 100 μl of working MTT solution (0.5 mg/ml MTT prepared from 5 mg/ml MTT stock in 1× complete media) was added. The plates were incubated in the incubator for 4 hours at 37° C. and 5% CO2. The plates were spinned down, supernatant removed, 200 μl DMSO was added, mixed gently and placed in the incubator for 10 minutes at 37° C. and 5% CO2. The absorbance at 570 nm was read and percentage viability and IC50 value of the compounds was calculated using regression analysis.
(In general: Formazan colour is commonly taken as a measure of viable cells.)

Data set [2] relates to SARS-CoV-2. Kind of data set: Neutral Red reduction of virus-induced cytopathic effect (primary CPE assay) in Vero 76 cells. To be noted: Severe acute respiratory syndrome coronavirus 2, virus-inhibitory. Background: Cytopathic effects are the visible damage that an infection or toxin causes in cultured cells.
The nature of data set [3]: Neutral Red toxicity assay, uninfected cultures. The conditions noted are these: African green monkey, Vero 76 cells (uninfected monolayers), cell-inhibitory. As to the method: Confluent or near-confluent cell culture monolayers of Vero 76 cells were prepared in 96-well disposable microplates the day before testing. Cells were maintained in MEM (Minimum Essential Medium Eagle) supplemented with 5% FBS (Fetal Bovine Serum). For antiviral assays the same medium was used but with FBS reduced to 2% and supplemented with 50-μg/ml gentamicin.
Compounds were dissolved in DMSO, saline or the diluent. […] The test compound was prepared at four serial log10 concentrations, usually 0.1, 1.0, 10, and 100 μg/ml or μM. Lower concentrations were used when insufficient compound was supplied. Five microwells were used per dilution: three for infected cultures and two for uninfected toxicity cultures. Controls for the experiment consisted of six microwells that were infected and not treated (virus controls) and six that were untreated and uninfected (cell controls) on every plate. A known active drug was tested in parallel as a positive control drug using the same method as was applied for test compounds. The positive control was tested with every test run.
Growth media was removed from the cells and the test compound was applied in 0.1 ml volume to wells at 2× concentration. Virus, normally at ˜60 CCID50 (50% cell culture infectious dose) in 0.1 ml volume is added to the wells designated for virus infection. Medium devoid of virus was placed in toxicity control wells and cell control wells. […] The plates were then stained with 0.011% neutral red for approximately two hours at 37° C. in a 5% CO2 incubator. The neutral red medium was removed by complete aspiration, and the cells may be rinsed 1× with phosphate buffered solution (PBS) to remove residual dye. The PBS was completely removed, and the incorporated neutral red was eluted with 50% Sorensen's citrate buffer/50% ethanol for at least 30 minutes. Neutral red dye penetrates into living cells, thus, the more intense the red color, the larger the number of viable cells present in the wells. The dye content in each well was quantified using a spectrophotometer at 540 nm wavelength. The dye content in each set of wells was converted to a percentage of dye present in untreated control wells using a Microsoft Excel computer-based spreadsheet and normalized based on the virus control. The 50% effective (EC50, virus-inhibitory) concentrations and 50% cytotoxic (CC50, cell-inhibitory) concentrations are then calculated by regression analysis. The quotient of CC50 divided by EC50 gives the selectivity index (SI) value.

Data set [4] concerns SARS-CoV-2. The data set can be described thus: Anti SARS-CoV-2 IC50 estimation by qRT-PCR in VeroE6 cells. To be noted: Severe acute respiratory syndrome coronavirus 2, Vero C1008, 48 h.
A short description of data set [5]: Cytotoxicity by Hoechst 33342 / Sytox orange staining. To be noted: African green monkey, Vero E6 cells. On the procedure:
The assay was done in a 96 well plate format in 3 wells for each sample. 1×10e4 Vero E6 cells were plated per well and incubated at 37° C. overnight for monolayer formation. Next day, cells were incubated with the test substance (TS) at the indicated concentration with final DMSO concentration being 0.5%. The Control cells were incubated with 0.5% DMSO only. 24 and 48 hours later, cells were stained with Hoechst 33342 and Sytox orange dye. Images were taken at 10×, 16 images per well, which covers 90% of the well area using ImageXpress Microconfocal (Molecular Devices). Hoechst 33342 nucleic acid stain is a popular cell-permanent nuclear counterstain that emits blue fluorescence when bound to dsDNA. It stains all the live and dead cells. Sytox orange dye stains the nucleic acid in the cells with compromised membranes. This stain is an indicator of cell death. First, the software will count total number of cells in the Hoechst image. In the Sytox image, it will count, among Hoechst positive cells, how many cells are positive for Sytox.

For data set [6], the system named is SARS-CoV-2. Kind of data set: Antiviral screening by qRT-PCR in VeroE6 cells.

What is called EC50 is the concentration that produces a half-maximal response. Higher therefore signals a need for much substance. One may read the CC50 as the concentration giving 50% cytotoxicity. A higher CC50 goes with better tolerance by the cells. Consider `CCOC(=O)c1c(C(=O)OCC)c(-c2ccc3c(c2)OCO3)c2cc(OC)c(OC)cc2c1OC1OCC(OC)C(OC)C1O` (stereo not drawn) [Compound of Formula D, diethyl 1-(benzo[d][1,3]dioxol-5-yl)-6,7-dimethoxy-4-(tetrahydro-3-hydroxy-4,5-dimethoxy-2H-pyran-2-yloxy)naphthalene-2,3-dicarboxylate], for which the “reduction of V-ATPase (%)” value in the data set with V-ATPase amounted to 18.2%. For the same compound, the “IC50 (μM)” value in data set [1] is on record as “No activity (Nontoxic)”. This compound registered a half-maximal effective concentration (EC50) with SARS-CoV-2 [2] of 32 µg/mL. In data set [3], this compound gave a CC50 of 40 µg/mL.

Broadly, the IC50 is the midpoint of a concentration-inhibition curve. By viability is commonly meant a per cent measure of how many cells are alive, often set against a control. One may read the inhibition as how much of the control response was suppressed. Consider `CCC(CC)COC(=O)[C@H](C)N[P@](=O)(OC[C@H]1O[C@@](C#N)(c2ccc3c(N)ncnn23)[C@H](O)[C@@H]1O)Oc1ccccc1` [Remdesivir, reference compound], for which the IC50 in the data set with SARS-CoV-2 [4] (read-out: IC50 value (μM) E gene) was 0.15 µM; in the data set with SARS-CoV-2 [4] (read-out: IC50 value (μM) N gene), 0.11 µM. Also, the viability at 24 h, 10 µM in data set [5] (24 hours, read-out: % Cell viability 24 hours) came to 99.2%. For the same compound, the viability at 48 h, 10 µM in data set [5] (48 hours, read-out: % Cell viability 48 hours) worked out at 94.4%. The inhibition at 10 µM was found to be 82.4% in the data set with SARS-CoV-2 [6] (Severe acute respiratory syndrome coronavirus 2, Vero C1008, 24 h, read-out: % inhibition of virus replication 24 hours post infection E); 80.3% with SARS-CoV-2 [6] (Severe acute respiratory syndrome coronavirus 2, Vero C1008, 24 h, read-out: % inhibition of virus replication 24 hours post infection N); 99.8% in the data set with SARS-CoV-2 [6] (Severe acute respiratory syndrome coronavirus 2, Vero C1008, 48 h, read-out: % inhibition of virus replication 48 hours post infection E); 99.9% with SARS-CoV-2 [6] (Severe acute respiratory syndrome coronavirus 2, Vero C1008, 48 h, read-out: % inhibition of virus replication 48 hours post infection N).
